Where two headings read alike, the source gives them in different places.
Experiment: Plasma PK of H3B-6545 capsules in fasted patients, phase 1 dose escalation
Type: in vivo, human
Conditions: for Vd / Vd/F / Tmax / AUC(0-inf) / Cmax / half-life / AUC(0-t): female, human, plasma, oral; for Vd / Vd/F / AUC(0-inf) / Cmax / half-life / AUC(0-t): Geometric Mean (GeoCV %); for Vd: read-out: Vss; for Vd/F: read-out: Vz/F
Procedure: Blood samples were collected at the planned time points from each patient and centrifuged. The plasma portion of each sample was then transferred to a K2EDTA tube, which was then shipped to a bioanalytical lab for concentration measurement using LC-MS/MS. The concentration data were then analyzed using Phoenix® WinNonlin software to obtain PK parameters. The obtained PK parameters were further summarized using analytical software.
Blood samples (approximately 5 mL each) were collected from human patients pre-dose and at various hourly time points post-dose. Plasma concentrations of H3B-6545 were determined using a validated high-performance liquid chromatography/tandem mass spectrometry (LC-MS/MS) method. The lower limit of quantification was 0.100 ng/mL.
The PK Analysis Set included subjects who received H3B-6545 drug product in capsules or tablets and had sufficient evaluable plasma concentration data to derive at least 1 primary PK parameter in each treatment. Plasma concentrations of H3B-6545 (as free base) were tabulated and summarized at each nominal time using descriptive statistics (number of subjects, arithmetic mean with standard deviation [SD], coefficient of variation [CV %], geometric mean, median, minimum, and maximum) as appropriate. Individual and mean (±SD) plasma concentration-time profiles were provided for each treatment.
Pharmacokinetic parameters of H3B-6545 were calculated using noncompartmental methods, using an appropriate model for plasma data and extravascular administration. The PK parameters included, but were not limited to, area under the curve to the time of the last quantifiable concentration (AUC0-t), maximum concentration (Cmax), and time at which the maximum concentration occurred (tmax). If data permitted, the area under the plasma concentration-time curve extrapolated to infinity (AUC0-inf), terminal elimination half-life (t1/2), apparent total body clearance (CL/F), total systemic clearance after oral administration at steady state (CLss/F), apparent volume of distribution during the terminal phase (Vz/F), apparent steady-state volume of distribution (Vss), accumulation ratio for Cmax (RCmax) and accumulation ratio of AUC0-24 (RAUC) were also derived.
Methods were used to analyze whether H3B-6545 inactivates both wild-type and mutant ERα by targeting cysteine 530 and enforcing a unique antagonist conformation. Methods: Women with locally advanced or metastatic HR+BC are treated (tx) with H3B-6545 drug product administered once daily orally by capsule over a 28 day cycle after progression on at least one hormonal therapy and at least one additional therapy/regimen. Dose escalation uses a 3+3 design with the option to backfill previously cleared doses and allows for intrapatient dose escalation. This example explored the safety, pharmacokinetics and pharmacodynamics of H3B-6545 in women with HR+BC to identify a recommended subsequent dose for testing.
• H3B-6545 administered once daily orally over a 28 day cycle. • Dose escalation using a standard 3+3 study design using dose cohorts of 100, 200, 300, 450, and 600 mg QD. • Patients allowed to backfill previously cleared doses. • Intra-patient dose escalation allowed after completion of Cycle 3. Results (as of Apr. 20, 2019) Patient Population: • 46 patients were treated with H3B-6545 at doses of 100 to 600 mg QD. • 42 (91.3%) patients received a prior CDK4/6 inhibitor and 32 (69.6%) prior fulvestrant. • 30 (65.2%) patients received ≥3 prior anti-cancer therapy lines in the advanced/metastatic setting.
The clinical trial of Example 3 was continued and PK evaluations (of this Example 4) were made at a later date on the basis of a larger patient population. The summary of Tables 1 in Analysis of Pharmacokinetic (PK) of Capsules in Fasted Patients and 2 show PK parameters and profiles of human patients receiving capsules of H3B-6545 drug product prepared as in Example 1. […]

[1] = 100 mg, Cycle 1 Day 1, 100 mg QD capsules, fasted patients
[2] = 100 mg, Cycle 1 Day 15, 100 mg QD capsules, fasted patients
[3] = 200 mg, Cycle 1 Day 1, 200 mg QD capsules, fasted patients
[4] = 200 mg, Cycle 1 Day 15, 200 mg QD capsules, fasted patients
[5] = 300 mg, Cycle 1 Day 1, 300 mg QD capsules, fasted patients
[6] = 300 mg, Cycle 1 Day 15, 300 mg QD capsules, fasted patients
[7] = 450 mg, Cycle 1 Day 1, 450 mg QD capsules, fasted patients
[8] = 450 mg, Cycle 1 Day 15, 450 mg QD capsules, fasted patients
[9] = 600 mg, Cycle 1 Day 1, 600 mg QD capsules, fasted patients
[10] = 600 mg, Cycle 1 Day 15, 600 mg QD capsules, fasted patients

In the case of `CN(C)C(=O)/C=C/CNCCOc1ccc(/C(=C(/CC(F)(F)F)c2ccccc2)c2ccc3[nH]nc(F)c3c2)cn1` [H3B-6545, (E)-N,N-dimethyl-4-[2-[5-[(Z)-4,4,4-trifluoro-1-(3-fluoro-1H-indazol-5-yl)-2-phenylbut-1-enyl]pyridin-2-yl]oxyethylamino]but-2-enamide], the Vd [1] is reported as 713 L, the Vd/F [1] is reported as 689 L and the Tmax (100 mg, Cycle 1 Day 1, 100 mg QD capsules, fasted patients, Median (Min, Max)) is reported as 3.05 h. It also gave an AUC(0-inf) [2] of 2950 ng·h/mL, a Cmax [2] of 287 ng/mL and a half-life [2] of 11.5 h. The AUC(0-t) (100 mg, Cycle 1 Day 15, 100 mg QD capsules, fasted patients, read-out: AUC0-24) was 2560 ng·h/mL, the AUC(0-t) (100 mg, Cycle 1 Day 15, 100 mg QD capsules, fasted patients, read-out: AUC0-t) was 2590 ng·h/mL and the Vd [2] was 679 L. The Vd/F [2] was 731 L, the Tmax (100 mg, Cycle 1 Day 15, 100 mg QD capsules, fasted patients, Median (Min, Max)) was 2 h and the AUC(0-inf) [3] was 5270 ng·h/mL. For the same molecule, the Cmax [3] was 473 ng/mL, the half-life [3] was 9.73 h and the AUC(0-t) (200 mg, Cycle 1 Day 1, 200 mg QD capsules, fasted patients, read-out: AUC0-24) was 4760 ng·h/mL. The AUC(0-t) (200 mg, Cycle 1 Day 1, 200 mg QD capsules, fasted patients, read-out: AUC0-t) was 4810 ng·h/mL, the Vd [3] was 567 L and the Vd/F [3] was 532 L. The Tmax (200 mg, Cycle 1 Day 1, 200 mg QD capsules, fasted patients, Median (Min, Max)) was 5 h, the AUC(0-inf) [4] was 7950 ng·h/mL and the Cmax [4] was 605 ng/mL. It also gave a half-life [4] of 10.1 h, an AUC(0-t) (200 mg, Cycle 1 Day 15, 200 mg QD capsules, fasted patients, read-out: AUC0-24) of 6870 ng·h/mL and an AUC(0-t) (200 mg, Cycle 1 Day 15, 200 mg QD capsules, fasted patients, read-out: AUC0-t) of 6910 ng·h/mL. For the same molecule, the Vd [4] was 456 L, the Vd/F [4] was 455 L and the Tmax (200 mg, Cycle 1 Day 15, 200 mg QD capsules, fasted patients, Median (Min, Max)) was 2.17 h. For the same molecule, the AUC(0-inf) [5] was 11100 ng·h/mL, the Cmax [5] was 898 ng/mL and the half-life [5] was 9.58 h. It also gave an AUC(0-t) (300 mg, Cycle 1 Day 1, 300 mg QD capsules, fasted patients, read-out: AUC0-24) of 9480 ng·h/mL, an AUC(0-t) (300 mg, Cycle 1 Day 1, 300 mg QD capsules, fasted patients, read-out: AUC0-t) of 9520 ng·h/mL and a Vd [5] of 416 L. It also gave a Vd/F [5] of 374 L, a Tmax (300 mg, Cycle 1 Day 1, 300 mg QD capsules, fasted patients, Median (Min, Max)) of 4 h and an AUC(0-inf) [6] of 12700 ng·h/mL. It also gave a Cmax [6] of 1200 ng/mL, a half-life [6] of 8.52 h and an AUC(0-t) (300 mg, Cycle 1 Day 15, 300 mg QD capsules, fasted patients, read-out: AUC0-24) of 12000 ng·h/mL. It also gave an AUC(0-t) (300 mg, Cycle 1 Day 15, 300 mg QD capsules, fasted patients, read-out: AUC0-t) of 12100 ng·h/mL, a Vd [6] of 373 L and a Vd/F [6] of 348 L. For the same molecule, the Tmax (300 mg, Cycle 1 Day 15, 300 mg QD capsules, fasted patients, Median (Min, Max)) was 4 h, the AUC(0-inf) [7] was 23000 ng·h/mL and the Cmax [7] was 1500 ng/mL. The half-life [7] was 11 h, the AUC(0-t) (450 mg, Cycle 1 Day 1, 450 mg QD capsules, fasted patients, read-out: AUC0-24) was 16200 ng·h/mL and the AUC(0-t) (450 mg, Cycle 1 Day 1, 450 mg QD capsules, fasted patients, read-out: AUC0-t) was 16200 ng·h/mL. The Vd [7] was 343 L, the Vd/F [7] was 311 L and the Tmax (450 mg, Cycle 1 Day 1, 450 mg QD capsules, fasted patients, Median (Min, Max)) was 4 h. For the same molecule, the AUC(0-inf) [8] was 17400 ng·h/mL, the Cmax [8] was 1420 ng/mL and the half-life [8] was 9.81 h. For the same molecule, the AUC(0-t) (450 mg, Cycle 1 Day 15, 450 mg QD capsules, fasted patients, read-out: AUC0-24) was 14000 ng·h/mL, the AUC(0-t) (450 mg, Cycle 1 Day 15, 450 mg QD capsules, fasted patients, read-out: AUC0-t) was 14100 ng·h/mL and the Vd [8] was 489 L. For the same molecule, the Vd/F [8] was 466 L, the Tmax (450 mg, Cycle 1 Day 15, 450 mg QD capsules, fasted patients, Median (Min, Max)) was 4 h and the AUC(0-inf) [9] was 32900 ng·h/mL. For the same molecule, the Cmax [9] was 2050 ng/mL, the half-life [9] was 13.1 h and the AUC(0-t) (600 mg, Cycle 1 Day 1, 600 mg QD capsules, fasted patients, read-out: AUC0-24) was 22400 ng·h/mL. The AUC(0-t) (600 mg, Cycle 1 Day 1, 600 mg QD capsules, fasted patients, read-out: AUC0-t) was 22300 ng·h/mL, the Vd [9] was 366 L and the Vd/F [9] was 344 L. For the same molecule, the Tmax (600 mg, Cycle 1 Day 1, 600 mg QD capsules, fasted patients, Median (Min, Max)) was 4 h, the AUC(0-inf) [10] was 39700 ng·h/mL and the Cmax [10] was 1680 ng/mL. For the same molecule, the half-life [10] was 21.8 h, the AUC(0-t) (600 mg, Cycle 1 Day 15, 600 mg QD capsules, fasted patients, read-out: AUC0-24) was 18400 ng·h/mL and the AUC(0-t) (600 mg, Cycle 1 Day 15, 600 mg QD capsules, fasted patients, read-out: AUC0-t) was 18700 ng·h/mL. It also gave a Vd [10] of 1100 L, a Vd/F [10] of 1030 L and a Tmax (600 mg, Cycle 1 Day 15, 600 mg QD capsules, fasted patients, Median (Min, Max)) of 4 h. The Tmax (as of 10 Dec. 2018, 100 to 450 mg/day capsules) was 2 to 4 h, the Tmax (as of Apr. 20, 2019, 100 to 600 mg QD) was 2 to 4 h and the “plasma concentration, C1D1 versus C1D15” value (once daily dosing) was “similar”.

— patent US12702660B2, “Method for treating cancer with an oral dosage form of an estrogen receptor-alpha inhibitor” (Eisai R&D Management Co., Ltd., priority 2019, dated 2026)
